The record followed here is article PMC6928678, “Simplified Head-to-Tail Cyclic Polypeptides as Biomaterial-Associated Antimicrobials with Endotoxin Neutralizing and Anti-Inflammatory Capabilities” (International Journal of Molecular Sciences, 2019).

In one series the test system is E. coli 25922. Briefly: microbe, parasite or virus in culture. The series is classed as cell-based, Escherichia coli. The note with it: Escherichia coli; E. coli 25922; MHB, 10^5 CFU/mL, 0.5–128 μM peptide, 20 h 37 °C, OD 492 nm, repeated three times. How it is done:
(§1) The test strains, including Gram-negative E. coli ATCC25922, E. coli ATCC 1005, S. typhimurium C7731, P. aeruginosa ATCC 27853, S. Typhimurium 14028, Gram-positive S. aureus ATCC29213, S. aureus ATCC 25923, S. epidermidis ATCC 12228 and S. aureus 43300, were obtained from the School of Veterinary Medicine, Northeast Agricultural University (Harbin, China).
(§2) Briefly, the bacteria were incubated overnight at 37 °C with constant shaking at 220 rpm, then were transferred to new MH broth (MHB) medium until they reached the logarithmic phase of growth. The bacteria were then diluted to 10^5 (CFU)/mL in MHB. The peptides were dissolved and diluted in 0.01% acetic acid and 0.2% bovine serum albumin (BSA) at various concentrations (0.5–128 μM) in each well of sterile 96-well plates and incubated for 20 h at 37 °C. […] The test was repeated three times.

Another series relates to E. coli UB 1005. Briefly: microbe, parasite or virus in culture. The conditions noted are these: Escherichia coli, UB1005; E. coli UB 1005; MHB, 10^5 CFU/mL, 20 h 37 °C, repeated three times. In kind it is cell-based, Escherichia coli. How it is done: as §1, §2
In the next series the test system is S. aureus 25923. Briefly: microbe, parasite or virus in culture. The series is classed as cell-based, Staphylococcus aureus. The note with it: Staphylococcus aureus; S. aureus 25923; MHB, 10^5 CFU/mL, 20 h 37 °C, repeated three times. How it is done:
as §1, §2

For a further series, the system named is S. aureus 29213. Briefly: microbe, parasite or virus in culture. In kind it is cell-based, Staphylococcus aureus. The note with it: Staphylococcus aureus; S. aureus 29213; MHB, 10^5 CFU/mL, 20 h 37 °C, repeated three times. How it is done:
as §1, §2

The test system of the next series is MRSA43300. Nature of the series: microbe, parasite or virus in culture. The series is classed as cell-based, Methicillin-resistant Staphylococcus aureus. The note with it: Staphylococcus aureus; MRSA43300; MHB, 10^5 CFU/mL, 20 h 37 °C, repeated three times. How it is done: as §1, §2
In another series the test system is P. aeruginosa 27853. Nature of the series: microbe, parasite or virus in culture. The series is classed as cell-based. The conditions noted are these: Pseudomonas aeruginosa; P. aeruginosa 27853; MHB, 10^5 CFU/mL, 20 h 37 °C, repeated three times; read-out: MIC. How it is done:
as §1, §2

For a further series, the system named is S. epidermidis 12228. Nature of the series: microbe, parasite or virus in culture. In kind it is cell-based. The conditions noted are these: Staphylococcus epidermidis; S. epidermidis 12228; MHB, 10^5 CFU/mL, 20 h 37 °C, repeated three times. How it is done:
as §1, §2

The test system of another series is S. typhimurium 14028. Nature of the series: microbe, parasite or virus in culture. In kind it is cell-based. The conditions noted are these: Salmonella enterica; S. typhimurium 14028; MHB, 10^5 CFU/mL, 20 h 37 °C, repeated three times. How it is done: as §1, §2
The test system of the next series is S. typhimurium 7731. Briefly: microbe, parasite or virus in culture. In kind it is cell-based. The note with it: Salmonella enterica; S. typhimurium 7731; MHB, 10^5 CFU/mL, 20 h 37 °C, repeated three times. How it is done: as §1, §2
Series [1] deals with gram-negative strains tested. Briefly: Geometric mean of MICs, gram-negative strains. The note with it: 5 gram-negative strains; >128 apparently counted as 256; read-out: nGM (–), geometric mean of the MICs against gram-negative strains. The series is classed as cell-based. How it is done: as §2
Series [2] relates to gram-positive strains tested. Briefly: organism not typed. In kind it is cell-based. The note with it: 4 gram-positive strains; >128 apparently counted as 256; read-out: pGM (+), geometric mean of the MICs against gram-positive strains. How it is done:
as §2

The test system of series [3] is all the 9 bacteria tested. Briefly: Geometric mean of MICs, all 9 bacteria. In kind it is cell-based. How it is done:
as §2

Series [4] relates to human red blood cells (hRBCs). Briefly: Hemolysis assay. The series is classed as cell-based. The note with it: human red blood cells, PBS, 1 h at 37 °C, OD 570 nm, repeated three times. How it is done:
Figure 2 (A) Hemolytic activity of the engineered peptides against human red blood cells (hRBCs). The hRBCs were incubated with equal amounts of the respective peptides dissolved in PBS for 1 h at 37 °C. (B) Cytotoxicity of the engineered peptides against RAW264.7. […] Data shown are three independent experiments.
The hemolytic activity of the peptides is determined by measuring the amount of hemoglobin released during the lysis of human erythrocytes at different concentrations of AMPs. Briefly, fresh, healthy human red blood cells (hRBCs) were collected and then washed three times with phosphate-buffered saline (PBS) buffer (pH 7.2) and centrifuged at 1000× g for 5 min. Each 50 µL sample of hRBCs was incubated with 50 µL of the respective peptide dissolved in PBS in a well of a 96-well plate for 1 h at 37 °C. After incubation, the samples were centrifuged at 1000× g for 5 min and the supernatants (50 μL) were transferred to a new 96-well microplate. The release of hemoglobin was measured by monitoring the OD at 570 nm (Tecan, Salzburg, Austria). Negative (hRBCs without AMP treatment) and positive (hRBCs treated with 0.1% TritonX-100) controls were used. The concentration of peptide that caused 5% hemolysis was considered the minimal hemolysis concentration (MHC). The test was repeated three times. The percent hemolysis was calculated using the following formula:(2) Percent hemolysis=A−A0/At−A0× 100% A0 and At represent 0% and 100% hemolysis as measured in 10 mM PBS and 0.2% Triton X-100, respectively.

Series [5] deals with bacteria versus human red blood cell. Briefly: Selectivity index (MHC5/GM). The conditions noted are these: 256 μM used for MHC5 when no hemolysis at 128 μM. How it is done: To investigate the cell selectivity of novel antimicrobials, the total selectivity index (TSI) was calculated as the ratio of the minimal hemolysis concentration (MHC) to the geometric mean (GM) of the MIC values (Table 2).

With `CC1(C)S[C@@H]2[C@H](NC(=O)Cc3ccccc3)C(=O)N2[C@H]1C(=O)O` [PS, Penicillin Sodium, reference compound], the MIC in the series with E. coli 25922 was 128 µM; with E. coli UB 1005 it was 64 µM; with S. aureus 25923, 32 µM; against S. aureus 29213 it was 64 µM; with MRSA43300, 32 µM; in the series on P. aeruginosa 27853, 128 µM. The MIC against S. epidermidis 12228 came out at 0.5 µM; with S. typhimurium 14028, 16 µM; against S. typhimurium 7731, 0.5 µM; in series [1], 24.3 µM; in [2] it was 13.5 µM; in series [3] (read-out: tGM, geometric mean of the MICs against all the 9 bacteria) it was 18.7 µM. Moreover, the “GM MIC (range of Gram-negative and Gram-positive geometric means)” value in series [3] (Table 2) was 13.5 to 24.3 µM. Besides, the “MHC5, minimum hemolytic concentration that induced ≥5% hemolysis” value in series [4] is over 128 µM. Also, the “nSI (–), selectivity index MHC5/GM (−)” value in series [5] was determined as 10.5. Moreover, the “pSI (+), selectivity index MHC5/GM(+)” value in series [5] is 19.0. Further, the “tSI, total selectivity index MHC5/TGM” value in series [5] is listed as 13.7.
